Assay [1] has as its target T1, μ opioid receptor (MOR) (Mus musculus, UniProt P42866).
T1 construct: expressed in transfected cells; host or cells: CHO (mMOR-CHO), membrane preparation
As to the kind of experiment: Competitive radioligand binding assay, MOR. As to the method:
(§1) The competition binding assay was performed using monoclonal mouse opioid receptors expressed in CHO cell lines (monoclonal human δ opioid receptor was used for the DOR assay).
(§2) The bound radioligand was separated using a Brandel harvester. Specific binding to the MOR, KOR, and DOR was calculated by subtracting the binding observed in the presence of 5 μM naltrexone, U50488, and SNC80, respectively, from the binding in their absence. Relative affinity values (IC50) were determined by fitting displacement binding inhibition data to a nonlinear regression model using GraphPad Prism 8.0 (GraphPad Software, San Diego, CA). The % inhibition was calculated using the formula: % inhibition = 100% - [(binding with the tested compound - nonspecific binding)/specific binding] × 100%. The IC50 values were converted to Ki values using the Cheng-Prusoff equation: Ki = IC50/ [1 + ([L*]/KD)], where [L*] is the concentration of the radioligand and KD is the KD of the radioligand.[68]

For assay [2], the target named is T2, κ opioid receptor (KOR) (Mus musculus, UniProt P33534).
T2 construct: expressed in transfected cells; host or cells: CHO (mKOR-CHO), membrane preparation
Nature of the assay: Competitive radioligand binding assay, KOR. The note with it: for Selectivity κ/μ: ratio of Ki values. As to the method: as §1, §2

Assay [3] addresses T3, MOR (Mus musculus, UniProt P42866).
T3 construct: expressed in transfected cells; host or cells: CHO (MOR-CHO), membrane preparation
As to the kind of experiment: MOR [35S]GTPγS functional assay. The following applies: for Emax: read-out: MOR [35S]GTPγS Binding %Emax of DAMGO, relative to 3 μM DAMGO, mean ± SEM. It is filed as biochemical. As to the method:
The [^35S]GTPγS functional assay was used to assess the efficacy of compounds at the MOR, KOR, and DOR. In this assay, 10 μg of MOR-CHO/KOR-CHO/DOR-CHO membrane protein was incubated in 500 μL of TME with 100 mM NaCl, 20 μM GDP, 0.1 nM [^35S]GTPγS, and varying concentrations of the compound for 1.5 h in a 30 °C water bath. Protein concentration was adjusted using the Bradford protein assay. […] After incubation, bound radioactivity was separated by filtration through GF/B glass fiber filters and measured by liquid scintillation counting. All assays were performed in duplicate and repeated at least three times. Net stimulated [35S]GTPγS binding was calculated as agonist-stimulated minus basal binding.
(In general: GTPγS resists hydrolysis and so accumulates on activated G proteins.)

Assay [4] concerns the target T4, δ opioid receptor (DOR) (Homo sapiens, UniProt P41143).
T4 construct: expressed in transfected cells; host or cells: CHO (hDOR-CHO), membrane preparation
As to the kind of experiment: Competitive radioligand binding assay, DOR. The note with it: for Selectivity δ/μ: ratio of Ki values. As to the method: as §1, §2

The subject of assay [5] is Swiss Webster mice. Nature of the assay: Warm-water tail immersion assay, antagonism of morphine-induced antinociception. The following applies: for Antagonism of morphine's antinociception, in words: single dose of 10 mg/kg s.c. in the presence of morphine (10 mg/kg), n = 6.

Structures are written as SMILES. Where a name gives a salt, the structure may show the parent alone.

Turning to `O=C(Cc1ccns1)N[C@H]1CC[C@@]2(O)[C@H]3Cc4ccc(O)c5c4[C@@]2(CCN3CC2CC2)[C@H]1O5` [Compound 2, 17-Cyclopropylmethyl-3,14β-dihydroxy-4,5α-epoxy-6α-(5′-isothiazolylacetamido)-morphinan hydrochloride], the affinity in assay [1], expressed as Ki, was 0.55 ± 0.06 nM. In addition, in assay [2], the affinity, expressed as Ki, was 1.49 ± 0.13 nM and the “Selectivity κ/μ” value is 3. In addition, in assay [3], it took 4.62 ± 0.44 nM to reach a half-maximal effect (EC50) and the Emax (usually the size of the effect at its maximum, as opposed to the concentration needed) was 18.2 ± 1.06%. In assay [4], the Ki (in general, a dissociation constant, usually derived from enzyme kinetics or from competition with a known ligand) is 13.9 ± 1.62 nM and the “Selectivity δ/μ” value was 25.
As to `O=C(N[C@H]1CC[C@@]2(O)[C@H]3Cc4ccc(O)c5c4[C@@]2(CCN3CC2CC2)[C@H]1O5)c1cncs1` [Compound 3, 17-Cyclopropylmethyl-3,14β-dihydroxy-4,5α-epoxy-6α-(5′-thiazolylcarboxamido)-morphinan hydrochloride], the affinity in assay [1] corresponds to a Ki of 0.35 ± 0.02 nM. Besides, in assay [2], the Ki amounted to 0.97 ± 0.11 nM and the “Selectivity κ/μ” value worked out at 3. For the same molecule, in assay [3], the EC50 (commonly the concentration at which the effect is half-maximal) stood at 2.77 ± 0.51 nM and the Emax came to 15.9 ± 1.84%. Besides, in assay [4], affinity was put at a Ki of 16.8 ± 3.88 nM and the “Selectivity δ/μ” value was 48.
Take `O=C(Cc1cncs1)N[C@H]1CC[C@@]2(O)[C@H]3Cc4ccc(O)c5c4[C@@]2(CCN3CC2CC2)[C@H]1O5` [Compound 4, 17-Cyclopropylmethyl-3,14β-dihydroxy-4,5α-epoxy-6α-(5′-thiazolylacetamido)-morphinan hydrochloride]: the Ki in assay [1] came out at 0.57 ± 0.02 nM. Also, in assay [2], affinity was put at a Ki of 2.08 ± 0.39 nM and the “Selectivity κ/μ” value was 4. In addition, in assay [3], the EC50 was 5.87 ± 1.26 nM and the Emax was found to be 17 ± 0.89%. In addition, in assay [4], the Ki was 8.5 ± 0.56 nM and the “Selectivity δ/μ” value is listed as 15.
`O=C(CCc1cncs1)N[C@H]1CC[C@@]2(O)[C@H]3Cc4ccc(O)c5c4[C@@]2(CCN3CC2CC2)[C@H]1O5` [Compound 5, 17-Cyclopropylmethyl-3,14β-dihydroxy-4,5α-epoxy-6α-[(3′-(thiazolyl-5′′-yl)propan-amido]morphinan hydrochloride]: in assay [1], the Ki stood at 0.71 ± 0.08 nM. For the same molecule, in assay [2], the Ki stood at 2.04 ± 0.38 nM and the “Selectivity κ/μ” value is recorded as 3. For the same molecule, in assay [3], the EC50 came to 2.76 ± 0.58 nM and the Emax was determined as 10.7 ± 1.02%. Moreover, in assay [4], the Ki turned out to be 11.6 ± 1.24 nM and the “Selectivity δ/μ” value is recorded as 16.
`O=C(Cc1nccs1)N[C@H]1CC[C@@]2(O)[C@H]3Cc4ccc(O)c5c4[C@@]2(CCN3CC2CC2)[C@H]1O5` [Compound 7, 17-Cyclopropylmethyl-3,14β-dihydroxy-4,5α-epoxy-6α-(2′-thiazolylacetamido)-morphinan hydrochloride]: the Ki in assay [1] was found to be 0.65 ± 0.05 nM. Further, the “Antagonism of morphine's antinociception, in words” value (shortened to “Antagonism”) in assay [5] is listed as “significantly antagonized”. Also, in assay [2], the Ki came out at 2.26 ± 0.5 nM and the “Selectivity κ/μ” value turned out to be 3. In assay [3], a half-maximal effect (EC50) was put at 3.87 ± 1.29 nM and the Emax was determined as 10.2 ± 0.61%. Besides, in assay [4], affinity was put at a Ki of 1.3 ± 0.08 nM and the “Selectivity δ/μ” value is 2.
In the case of `O=C(CCc1nccs1)N[C@H]1CC[C@@]2(O)[C@H]3Cc4ccc(O)c5c4[C@@]2(CCN3CC2CC2)[C@H]1O5` [Compound 8, 17-Cyclopropylmethyl-3,14β-dihydroxy-4,5α-epoxy-6α-[(3′-(thiazolyl-2′′-yl)propan-amido]morphinan hydrochloride], the affinity in assay [1], expressed as Ki, was 0.45 ± 0.06 nM. The “Antagonism” value in assay [5] is recorded as “significantly antagonized”. In addition, in assay [2], the Ki is 2 ± 0.42 nM and the “Selectivity κ/μ” value was 4. Further, in assay [3], the EC50 was 3.4 ± 0.6 nM and the Emax was 13.4 ± 0.41%. For the same molecule, in assay [4], the Ki was found to be 1.18 ± 0.06 nM and the “Selectivity δ/μ” value turned out to be 3.
Turning to `O=C(Cc1ccns1)N[C@@H]1CC[C@@]2(O)[C@H]3Cc4ccc(O)c5c4[C@@]2(CCN3CC2CC2)[C@H]1O5` [Compound 10, 17-Cyclopropylmethyl-3,14β-dihydroxy-4,5α-epoxy-6β-(5′-isothiazolylacetamido)-morphinan hydrochloride], the Ki in assay [1] came out at 0.59 ± 0.09 nM. For the same molecule, the “AD50 (95% CL) for counteracting morphine-induced antinociception” value in assay [5] (mice, s.c., given 5 min before morphine) is 13.12 (2.34–73.39) mg/kg. For the same molecule, the “Antagonism” value in assay [5] was “significantly antagonized”. Also, in assay [2], affinity was put at a Ki of 1.14 ± 0.05 nM and the “Selectivity κ/μ” value worked out at 2. Moreover, in assay [3], the EC50 worked out at 1.16 ± 0.15 nM and the Emax was found to be 9.32 ± 0.67%. In assay [4], the Ki was 34 ± 4.18 nM and the “Selectivity δ/μ” value worked out at 58.
In assay [1], `O=C(N[C@@H]1CC[C@@]2(O)[C@H]3Cc4ccc(O)c5c4[C@@]2(CCN3CC2CC2)[C@H]1O5)c1cncs1` [Compound 11, 17-Cyclopropylmethyl-3,14β-dihydroxy-4,5α-epoxy-6β-(5′-thiazolylcarboxamido)-morphinan hydrochloride] yielded a Ki of 0.53 ± 0.04 nM. Further, the “Antagonism” value in assay [5] is listed as “significantly antagonized”. Also, in assay [2], the affinity, expressed as Ki, was 1.41 ± 0.24 nM and the “Selectivity κ/μ” value is listed as 3. For the same molecule, in assay [3], the EC50 came to 1.58 ± 0.44 nM and the Emax is 13.7 ± 1.32%. In addition, in assay [4], the Ki came out at 77.9 ± 16.1 nM and the “Selectivity δ/μ” value was found to be 147.
As for `O=C(Cc1cncs1)N[C@@H]1CC[C@@]2(O)[C@H]3Cc4ccc(O)c5c4[C@@]2(CCN3CC2CC2)[C@H]1O5` [Compound 12, 17-Cyclopropylmethyl-3,14β-dihydroxy-4,5α-epoxy-6β-(5′-thiazolylacetamido)-morphinan hydrochloride], the Ki in assay [1] was 0.39 ± 0.04 nM. In addition, in assay [2], the affinity corresponds to a Ki of 0.89 ± 0.05 nM and the “Selectivity κ/μ” value turned out to be 2. In assay [3], a half-maximal response (EC50) required 1.24 ± 0.25 nM and the Emax worked out at 13 ± 0.76%. Also, in assay [4], the Ki was 17.5 ± 1.91 nM and the “Selectivity δ/μ” value is 44.
On to `O=C(CCc1cncs1)N[C@@H]1CC[C@@]2(O)[C@H]3Cc4ccc(O)c5c4[C@@]2(CCN3CC2CC2)[C@H]1O5` [Compound 13, 17-Cyclopropylmethyl-3,14β-dihydroxy-4,5α-epoxy-6β-[(3′-(thiazolyl-5′′-yl)propan-amido]morphinan hydrochloride], for which the affinity in assay [1], expressed as Ki, was 0.49 ± 0.07 nM. In assay [2], the Ki was 1.2 ± 0.25 nM and the “Selectivity κ/μ” value turned out to be 2. Moreover, in assay [3], the EC50 was determined as 1.39 ± 0.36 nM and the Emax stood at 10.5 ± 0.92%. Also, in assay [4], affinity was put at a Ki of 31.5 ± 2.78 nM and the “Selectivity δ/μ” value was found to be 65.
In the case of `O=C(Cc1nccs1)N[C@@H]1CC[C@@]2(O)[C@H]3Cc4ccc(O)c5c4[C@@]2(CCN3CC2CC2)[C@H]1O5` [Compound 15, 17-Cyclopropylmethyl-3,14β-dihydroxy-4,5α-epoxy-6β-(2′-thiazolylacetamido)-morphinan hydrochloride], the Ki in assay [1] is 0.35 ± 0.04 nM. Moreover, in assay [2], the Ki amounted to 1.89 ± 0.77 nM and the “Selectivity κ/μ” value stood at 5. For the same molecule, in assay [3], the EC50 was 0.78 ± 0.18 nM and the Emax came to 11 ± 0.43%. Also, in assay [4], the affinity corresponds to a Ki of 26.4 ± 2.65 nM and the “Selectivity δ/μ” value came to 76.
Turning to `O=C(CCc1nccs1)N[C@@H]1CC[C@@]2(O)[C@H]3Cc4ccc(O)c5c4[C@@]2(CCN3CC2CC2)[C@H]1O5` [Compound 16, 17-Cyclopropylmethyl-3,14β-dihydroxy-4,5α-epoxy-6β-[(3′-(thiazolyl-2′′-yl)propan-amido]morphinan hydrochloride], in assay [1], affinity was put at a Ki of 0.35 ± 0.03 nM. In addition, in assay [2], the Ki was determined as 0.67 ± 0.08 nM and the “Selectivity κ/μ” value is recorded as 2. Also, in assay [3], the EC50 was 1.75 ± 0.46 nM and the Emax came to 12.1 ± 0.67%. Besides, in assay [4], the affinity corresponds to a Ki of 18.8 ± 3.26 nM and the “Selectivity δ/μ” value came out at 54.

These data come from paper PMC11651181, “Discovery of 6α-Thiazolylcarboxamidonaltrexamine Derivative (NTZ) as a Potent and Central Nervous System Penetrant Opioid Receptor Modulator with Drug-like Properties for Potential Treatment of Opioid Use Disorder” (ACS Pharmacology & Translational Science, 2024).
